Measurements reported in US8394794B2, “Therapeutic compounds” (Regents of The University of Minnesota, priority 2007, dated 2013).
Read-outs that look alike come from different tables or passages of the source.

Assays:
[1] = target: T1, Bcl-XL (Homo sapiens, UniProt Q07817); test: Fluorescence polarization (FP) competition binding assay, Bcl-XL
T1 construct: made in house
Source text: (§1) With the stability improved, the mechanism of action of compound 1 was studied to determine whether compound 1 would retain the same mechanism of HA 14-1 as an antagonist against anti-apoptotic Bcl-2 proteins. Table 1 summarizes the binding interaction of compound 1 with three anti-apoptotic Bcl-2 proteins by following an established fluorescence polarization competition assay (see Doshi, J. M.; Tian, D.; Xing, C. J. Med. Chem. 2006, 49, 7731-7739).
(§2) To explore whether compound 3 functioned the same as HA 14-1 in inducing cell death, compound 3 was tested for its binding interactions with recombinant Bcl-2, Bcl-XL, and Bcl-w proteins. This was done by using the FP based competition binding assay (see below).
(§3) The binding interactions of the test compound with Bcl-2, Bcl-XL and Bcl-w proteins were evaluated using the respective recombinant proteins. The preparation of these recombinant Bcl-2 proteins and fluorescently labeled Bak peptide has been detailed previously (see Doshi, J. M.; Tian, D.; Xing, C. J. Med. Chem. 2006, 49, 7731). The assays were conducted via an optimized protocol established in the laboratory using a GENios Pro plate reader (Tecan US, NC) with all assays performed in triplicate, each assay performed twice (see Doshi, J. M.; Tian, D.; Xing, C. J. Med. Chem. 2006, 49, 7731).

[2] = test system: Jurkat cells (normal, over-expressing Bcl-2, or over-expressing Bcl-XL); details: Jurkat over-expressing Bcl-2 or Bcl-XL; from Doshi et al. J. Med. Chem. 2006; cited from earlier work
[3] = target: T2, Bcl-w (Homo sapiens, UniProt Q92843); test: Fluorescence polarization (FP) competition binding assay, Bcl-w
T2 construct: made in house
T2 sequence (Q92843 1-193): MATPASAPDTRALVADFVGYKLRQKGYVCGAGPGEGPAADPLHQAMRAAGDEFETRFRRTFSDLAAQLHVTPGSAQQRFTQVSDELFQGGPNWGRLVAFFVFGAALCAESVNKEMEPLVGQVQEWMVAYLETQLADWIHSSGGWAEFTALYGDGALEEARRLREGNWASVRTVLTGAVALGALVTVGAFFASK
Source text: as §1, §2, §3

[4] = test system: Jurkat cells; test: In vitro cytotoxicity assay (GI50) with fresh and incubated samples; format: cell-based; details: for increase of GI50 after incubation: 24-hour incubation in cell culture media at 37° C., FIG. 1; for loss of cytotoxicity after incubation: one hour incubation, FIG. 6
Procedure: Compound 1 (Example 2) was first evaluated for its stability under physiological conditions. In brief, compound 1 was incubated in cell culture media at 37° C. for 24 hours and the in vitro cytotoxicity was determined. HA 14-1 was run in parallel for comparison.
The stability of compound 3 (Example 1) was evaluated using the in vitro cytotoxicity assay described below.
The in vitro cytotoxicity of the test compound was assayed by determining the GI50s (the concentration of the compound required to inhibit cell growth by 50%). In brief, Jurkat cells at a density of 10^4 cells/well were plated in a 96-well plate. A series of 3-fold dilution of the test compound with 1% DMSO in the final cell media was used for the cell treatment (cells treated with media containing 1% DMSO served as a control). An identical set of the test compounds was incubated at 37° C. for the specified time and used along with freshly prepared samples for the cell-viability assay. After 24-hour treatment, the relative cell viability in each well was determined by using CellTiter-Blue Cell Viability Assay kit (a fluorescence assay that measures the reduction of a dye (resazurin) into a fluorescent end product (resorufin) by metabolically active cells—viable cells) (Promega, CA). The GI50 of each candidate was determined by fitting the relative viability of the cells to the drug concentration by using a dose-response model in GraphPad software.

[5] = target: T3, Bcl-2 (Homo sapiens, UniProt P10415); test: Fluorescence polarization (FP) competition binding assay, Bcl-2; details: Table 1
T3 construct: made in house
Procedure: This was done by using the FP based competition binding assay (see below).
as §3, with “The preparation of these recombinant Bcl-2 proteins and fluorescently labeled Bak peptide has been detailed previously (see Doshi, J. M.; Tian, D.; Xing, C. J. Med. Chem. 2006, 49, 7731).” left out

[6] = Half-life under varying pH conditions; format: physicochemical; details: buffer
[7] = test system: Jurkat cells; test: Sensitization of Jurkat cells to doxorubicin (combination cytotoxicity); format: cell-based; details: for synergism with doxorubicin: combination vs each alone, FIG. 4
Procedure: Finally, compound 1 was analyzed for its capability in sensitizing tumor cells to standard chemotherapies. As HA 14-1 was established to sensitize various tumor cells to doxorubicin, compound 1 was tested in parallel with HA 14-1 for the potential synergism to doxorubicin in Jurkat cells. Briefly, the cytotoxicity of doxorubicin alone, compound 1 alone, or the combination of both to Jurkat cells were evaluated. […] This study established that compound 1 can function as a chemosensitizer in combination cancer therapy. The synergism of compound 1 was further supported by the dose-response potentiation of doxorubicin (FIG. 5).

[8] = test system: Jurkat cells (normal, over-expressing Bcl-2, or over-expressing Bcl-XL); test: In vitro cytotoxicity against three Jurkat cell lines (drug resistance); format: cell-based; details: Jurkat normal vs Bcl-2 or Bcl-XL over-expressing; FIG. 3, FIG. 7
Procedure: Compound 1 was further studied for its capability to overcome drug resistance induced by the over-expression of anti-apoptotic Bcl-2 proteins. Specifically, the in vitro cytotoxicity of compound 1 against three Jurkat cells (normal, over-expressing Bcl-2, or over-expressing Bcl-XL) were evaluated.
The ability of compound 3 to overcome the drug resistance induced by the over-expression of anti-apoptotic Bcl-2 proteins by evaluating its cytotoxicity in Bcl-2 or Bcl-XL over-expressing Jurkat cells was also evaluated.
The in vitro cytotoxicity of the test compound was assayed by determining the GI50s (the concentration of the compound required to inhibit cell growth by 50%). In brief, Jurkat cells at a density of 10^4 cells/well were plated in a 96-well plate. A series of 3-fold dilution of the test compound with 1% DMSO in the final cell media was used for the cell treatment (cells treated with media containing 1% DMSO served as a control). An identical set of the test compounds was incubated at 37° C. for the specified time and used along with freshly prepared samples for the cell-viability assay. […]

[9] = test system: caspase-3/-7; test: Concentration-dependent activation of caspase-3/-7 / mode of cell death; format: cell-based; details: 24 hours treatment; FIG. 2
Procedure: Compound 1 was further analyzed for its mechanism to inhibit cell growth as HA 14-1 does. This was characterized for concentration-dependent activation of caspase-3/-7. HA 14-1 was run in parallel for comparison. […] Mechanistically, however, compound 1 induced cell death through two different pathways depending on its concentration, similar to HA 14-1. Between 50-100 μM, compound 1 induces apoptosis as characterized by caspase-3/-7 activation. On the other hand, at >100 μM, compound 1 induced non-apoptotic cell death (no activation of caspase-3/-7). The induction of cell death through apoptosis and non-apoptotic process was further supported by DNA fragmentation studies.

[10] = HPLC analysis of decomposition in cell culture media; format: physicochemical; details: 48-hour incubation in cell culture media at 37° C.
[11] = Table 3, mean of two independent experiments with triplicate in each, read-out: Ki ± SEM Bcl-w

T1 sequence (Q07817 whole entry, species assumed): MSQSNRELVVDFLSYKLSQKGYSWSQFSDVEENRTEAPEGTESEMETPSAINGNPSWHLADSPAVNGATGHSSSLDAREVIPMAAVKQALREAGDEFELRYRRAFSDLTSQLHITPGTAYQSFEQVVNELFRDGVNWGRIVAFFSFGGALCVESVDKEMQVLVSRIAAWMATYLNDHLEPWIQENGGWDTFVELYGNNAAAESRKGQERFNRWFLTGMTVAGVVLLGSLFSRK
T3 sequence (P10415 whole entry, species assumed): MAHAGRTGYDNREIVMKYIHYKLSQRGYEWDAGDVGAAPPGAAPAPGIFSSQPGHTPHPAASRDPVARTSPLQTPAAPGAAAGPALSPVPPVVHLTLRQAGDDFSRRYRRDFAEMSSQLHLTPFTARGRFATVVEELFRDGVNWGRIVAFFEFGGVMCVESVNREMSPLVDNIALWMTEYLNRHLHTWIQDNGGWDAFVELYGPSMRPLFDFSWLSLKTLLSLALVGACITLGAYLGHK

Row | Ki ([1]; Table 1, read-out: Ki Bcl-XL) [µM] | Ki ([3]; Table 1, read-out: Ki Bcl-w) [µM] | Ki [3, 11] [µM] | Ki [5] [µM] | half-life ([6]; pH 6.0) [min] | half-life ([6]; pH 7.0) [min] | half-life ([6]; pH 8.0) [min] | Ki ([1]; Table 3, mean of two independent experiments with triplicate in each, read-out: Ki ± SEM Bcl-XL) [µM] | decomposition by HPLC [10] | Structure (SMILES) | resistance induced by over-expression of Bcl-2 or Bcl-XL [2] | increase of GI50 after incubation [4] [fold] | loss of cytotoxicity after incubation [4] [fold] | synergism with doxorubicin [7] | resistance induced by over-expression of Bcl-2 or Bcl-XL [8] | concentration inducing apoptosis (caspase-3/-7 activation) [9] [µM] | concentration inducing non-apoptotic cell death (no activation of caspase-3/-7) [9] [µM] | cytotoxicity (inhibition of cell growth) compared with HA 14-1 ([4]; 24 hours treatment, FIG. 2) | potentiation of doxorubicin ([7]; 30 μM compound, FIG. 5) [fold]
1 | 58.9 ± 5.3 | 59.3 ± 5.3 | 59.3 ± 5.32 | 169 ± 18.9 | 125 | 112 | 73.1 |  |  | CCOC(=O)C1=C(N)Oc2ccc(Br)cc2C1C(C#N)C(=O)OCC (stereo not drawn) [HA 14-1, reference compound] | show no resistance | ~35 | 10 | able to synergize doxorubicin |  |  |  |  | 
2 |  |  | 49.4 ± 1.76 |  | 165 |  |  | 55.4 ± 0.88 |  | CCOC(=O)C1=C(N)Oc2ccc(Br)cc2C1C(C)(C#N)C(=O)OCC (stereo not drawn) [Compound 3, Ethyl-2-amino-6-bromo-4-(2-cyano-1-ethoxy-1-oxopropan-2-yl)-4H-chromene-3-carboxylate] |  |  | 2.5 |  | unable to induce any noticeable resistance |  |  |  | 
3 | 390 | 686 |  | 858 |  |  |  |  | no decomposition was detected | CCOC(=O)CC1C(C(=O)OCC)=C(N)Oc2ccc(Br)cc21 (stereo not drawn) [Compound 1, Ethyl-2-amino-6-bromo-4-(2-ethoxy-2-oxoethyl)-4H-chromene-3-carboxylate] |  | 1.2 |  | able to synergize doxorubicin | induced no resistance | 50 to 100 | > 100 | less cytotoxic than HA 14-1 | 1.4
